How the values were obtained:
Format in all cases: biochemical
PKR R510Q = PKR R510Q (Homo sapiens, UniProt P30613, R510Q); test: PKR Mutant Assay, dose response (AC50), PKR R510Q; conditions: PKR R510Q mutant enzyme
Protocol: (§1) • PKR or PKR mutant enzyme solution was diluted in assay buffer. • 2 μL of test compound was added into wells first, and then 180 μL reaction mix was added. • Reactions mixture with test compound was assembled except for ADP, and plates were stored for 60 minutes at room temperature. • 20 uL ADP was added to start reaction at room temperature and reaction progress was measured as changes in absorbance at 340 nm wavelength at room temperature.
(§2) Test Compound Preparation: • Test compound stock was made at 100× concentration in 100% DMSO (10 mM) • 1 to 3 dilutions were made for 11 points (i.e. 50 μl of first concentration added to 100 μl 100% DMSO to yield 3.33 mM, 50 μl of this added to 100 μl DMSO to yield 1.11 mM, and so forth) • 1 to 100 dilution into assay (2 μl in 200 μl) yielded starting concentration of 100 μM, decreasing 3 fold for 11 points.

wt PKR = wt PKR (Homo sapiens, UniProt P30613); test: PKR Mutant Assay, dose response (AC50), wild type PKR enzyme; conditions: wild type PKR enzyme
Protocol: as §1, §2

PKR R532W = PKR R532W (Homo sapiens, UniProt P30613, R532W); test: PKR Mutant Assay, dose response (AC50), PKR R532W; conditions: PKR R532W mutant enzyme
Protocol: as §1, §2

Sequence of PKR R532W (P30613 whole entry R532W): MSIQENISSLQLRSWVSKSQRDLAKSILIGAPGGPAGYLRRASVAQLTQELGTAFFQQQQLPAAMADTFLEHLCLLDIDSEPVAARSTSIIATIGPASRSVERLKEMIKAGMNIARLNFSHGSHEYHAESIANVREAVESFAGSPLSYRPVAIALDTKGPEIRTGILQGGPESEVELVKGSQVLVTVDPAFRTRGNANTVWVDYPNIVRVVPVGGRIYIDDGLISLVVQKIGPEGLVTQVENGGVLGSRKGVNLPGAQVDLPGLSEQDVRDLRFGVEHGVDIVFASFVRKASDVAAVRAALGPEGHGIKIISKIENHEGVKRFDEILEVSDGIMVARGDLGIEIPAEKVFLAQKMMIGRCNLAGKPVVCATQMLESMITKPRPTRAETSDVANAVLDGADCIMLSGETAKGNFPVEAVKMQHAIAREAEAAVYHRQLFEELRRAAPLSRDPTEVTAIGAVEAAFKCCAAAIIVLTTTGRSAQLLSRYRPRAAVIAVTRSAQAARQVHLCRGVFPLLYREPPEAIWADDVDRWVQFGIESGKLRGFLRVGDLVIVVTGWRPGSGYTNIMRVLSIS
Sequence of wt PKR (P30613 whole entry): as the sequence (P30613 whole entry R532W) above, with W532R counted along it
Sequence of PKR R510Q (P30613 whole entry R510Q): as the sequence (P30613 whole entry R532W) above, with R510Q, W532R counted along it

| SMILES | AC50 (PKR R510Q) [nM] | AC50 (wt PKR) [nM] | AC50 (PKR R532W) [nM] |
| --- | --- | --- | --- |
| CC(C)CC1(O)CCN(C(=O)c2ccc(NS(=O)(=O)c3cnc(O)c4cccnc34)cc2)CC1 [Compound 416] | > 10000 |  |  |
| CC(C)CC1(O)CCN(C(=O)c2ccc(NS(=O)(=O)c3cccc4cncnc34)cc2)CC1 [Compound 441] |  | 101 to 1000 |  |
| CC(C)CC1(O)CCN(C(=O)c2ccc(NS(=O)(=O)c3cccc4[nH]cnc34)cc2)CC1 [Compound 449] | > 10000 | > 10000 | > 10000 |
| Cn1ccc(C2(O)CCN(C(=O)c3ccc(NS(=O)(=O)c4cccc5scnc45)cc3)CC2)n1 [Compound 450] | > 10000 | > 10000 | > 10000 |
| CC(C)CC1(O)CCN(C(=O)c2ccc(NS(=O)(=O)c3cccc4ncc(O)nc34)cc2)CC1 [Compound 460] | > 10000 | > 10000 | > 10000 |
| CS(=O)(=O)CCC1(O)CCN(C(=O)c2ccc(NS(=O)(=O)c3cccc4scnc34)cc2)CC1 [Compound 466] | > 10000 | 1010 to 10000 | > 10000 |
| CS(=O)(=O)CCC1(O)CCN(C(=O)c2ccc(NS(=O)(=O)c3cccc4nccnc34)cc2)CC1 [Compound 470] | > 10000 | 1010 to 10000 | 1010 to 10000 |
| CS(=O)(=O)CC1(O)CCN(C(=O)c2ccc(NS(=O)(=O)c3cccc4scnc34)cc2)CC1 [Compound 472] | 1010 to 10000 | 101 to 1000 | 101 to 1000 |
| CS(=O)(=O)CC1(O)CCN(C(=O)c2ccc(NS(=O)(=O)c3cccc4nccnc34)cc2)CC1 [Compound 474] | 1010 to 10000 | 101 to 1000 | 101 to 1000 |
| CC(C)(O)CCCC1(O)CCN(C(=O)c2ccc(NS(=O)(=O)c3cccc4nccnc34)cc2)CC1 [Compound 475] |  | > 10000 | > 10000 |
| CC(C)(O)CCCC1(O)CCN(C(=O)c2ccc(NS(=O)(=O)c3cccc4scnc34)cc2)CC1 [Compound 476] |  | 1010 to 10000 | 1010 to 10000 |
| CC(F)(F)CCC1(O)CCN(C(=O)c2ccc(NS(=O)(=O)c3cccc4scnc34)cc2C#N)CC1 [Compound 477, N-(3-cyano-4-(4-(3,3-difluorobutyl)-4-hydroxypiperidine-1-carbonyl)phenyl)benzo[d]thiazole-4-sulfonamide] | 1010 to 10000 | 101 to 1000 | 101 to 1000 |
| O=C(c1ccc(NS(=O)(=O)c2cccc3scnc23)cc1)N1CCC(O)(c2nc(Cl)cs2)CC1 [Compound 481] | 1010 to 10000 | 1010 to 10000 | 101 to 1000 |
| CCS(=O)(=O)CC1(O)CCN(C(=O)c2ccc(NS(=O)(=O)c3cccc4scnc34)cc2)CC1 [Compound 484] | > 10000 | 1010 to 10000 | 1010 to 10000 |
| Nc1nc(CC2(O)CCN(C(=O)c3ccc(NS(=O)(=O)c4cccc5scnc45)cc3)CC2)cs1 [Compound 485] | > 10000 | 1010 to 10000 | 1010 to 10000 |
| CN1CCC(C2(CO)CCN(C(=O)c3ccc(NS(=O)(=O)c4cccc5scnc45)cc3)CC2)C1=O (stereo not drawn) [Compound 487] | 1010 to 10000 | 1010 to 10000 | 1010 to 10000 |
| CN1CCC(CC2(O)CCN(C(=O)c3ccc(NS(=O)(=O)c4cccc5scnc45)cc3)CC2)C1=O (stereo not drawn) [Compound 488] | > 10000 | 1010 to 10000 | 101 to 1000 |
| CCS(=O)(=O)CC1(O)CCN(C(=O)c2ccc(NS(=O)(=O)c3cccc4nccnc34)cc2)CC1 [Compound 490] | > 10000 | 1010 to 10000 | 1010 to 10000 |
| O=C(c1ccc(NS(=O)(=O)c2cccc3nccnc23)cc1)N1CCC(O)(Cc2nc(Cl)cs2)CC1 [Compound 494] | 101 to 1000 |  |  |
| O=C1NCCC1CC1(O)CCN(C(=O)c2ccc(NS(=O)(=O)c3cccc4scnc34)cc2)CC1 (stereo not drawn) [Compound 495] | > 10000 | 1010 to 10000 | 1010 to 10000 |
| O=C1NCCC1CC1(O)CCN(C(=O)c2ccc(NS(=O)(=O)c3cccc4nccnc34)cc2)CC1 (stereo not drawn) [Compound 496] | > 10000 | 1010 to 10000 | 1010 to 10000 |
| CC(C)CC1(N)CCN(C(=O)c2ccc(NS(=O)(=O)c3cccc4scnc34)cc2)CC1 [Compound 529] | 101 to 1000 |  | 101 to 1000 |
